Key:
AnGar1 [1] = target: T1, AnGar1 (Aspergillus niger, UniProt A2R7U3); experiment: NADH oxidation at […] nm, yeast crude extract; type: biochemical; details: 160 or 800 uM NADH, 100 mM GalA, 10 mM potassium phosphate pH 7.2; competitive
T1 construct: gene An16g04770; synthetic ORF codon optimized for S. cerevisiae; expressed from plasmid in yeast CEN.PK2-1C, clear crude extract assayed against empty-vector control
T1 sequence (A2R7U3 1-319): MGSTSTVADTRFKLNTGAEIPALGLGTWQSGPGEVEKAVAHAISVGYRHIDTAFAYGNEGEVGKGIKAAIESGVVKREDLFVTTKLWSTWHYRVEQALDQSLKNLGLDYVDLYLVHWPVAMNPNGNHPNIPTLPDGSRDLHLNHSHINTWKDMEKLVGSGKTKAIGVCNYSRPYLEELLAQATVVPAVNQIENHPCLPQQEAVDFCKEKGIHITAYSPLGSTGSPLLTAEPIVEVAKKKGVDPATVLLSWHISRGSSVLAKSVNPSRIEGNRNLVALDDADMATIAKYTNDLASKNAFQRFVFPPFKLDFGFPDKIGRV

TrGar1 = target: T2, TrGar1 (Trichoderma reesei, UniProt Q3ZFI7); experiment: HPLC of L-galactonate in cultures of expressing yeast; type: cell-based; details: whole cells, sorbitol co-substrate, YlSdr supplying NADPH, pH 6.3, 30 °C
T2 construct: gene gar1; synthetic ORF codon optimized for S. cerevisiae; expressed in yeast strains co-expressing GatA, Hxt13 and sorbitol dehydrogenase; whole-cell conversion
T2 sequence (Q3ZFI7 1-309): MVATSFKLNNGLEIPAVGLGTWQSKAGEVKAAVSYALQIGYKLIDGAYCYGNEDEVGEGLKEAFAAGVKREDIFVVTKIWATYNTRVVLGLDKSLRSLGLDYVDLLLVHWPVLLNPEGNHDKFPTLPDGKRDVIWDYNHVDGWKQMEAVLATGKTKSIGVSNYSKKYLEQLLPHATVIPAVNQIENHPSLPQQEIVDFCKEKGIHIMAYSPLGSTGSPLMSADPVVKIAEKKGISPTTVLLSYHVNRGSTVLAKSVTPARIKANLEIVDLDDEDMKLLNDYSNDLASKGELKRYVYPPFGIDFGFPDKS

AnGaaA = target: T3, AnGaaA (Aspergillus niger, UniProt A8DRH9); experiment: as above; type: cell-based; details: whole cells, sorbitol co-substrate, YlSdr supplying NADPH, pH 6.3, 30 °C
T3 construct: gene gaaA; synthetic ORF codon optimized for S. cerevisiae; expressed from multicopy plasmid in yeast; whole-cell conversion
T3 sequence (A8DRH9 1-412): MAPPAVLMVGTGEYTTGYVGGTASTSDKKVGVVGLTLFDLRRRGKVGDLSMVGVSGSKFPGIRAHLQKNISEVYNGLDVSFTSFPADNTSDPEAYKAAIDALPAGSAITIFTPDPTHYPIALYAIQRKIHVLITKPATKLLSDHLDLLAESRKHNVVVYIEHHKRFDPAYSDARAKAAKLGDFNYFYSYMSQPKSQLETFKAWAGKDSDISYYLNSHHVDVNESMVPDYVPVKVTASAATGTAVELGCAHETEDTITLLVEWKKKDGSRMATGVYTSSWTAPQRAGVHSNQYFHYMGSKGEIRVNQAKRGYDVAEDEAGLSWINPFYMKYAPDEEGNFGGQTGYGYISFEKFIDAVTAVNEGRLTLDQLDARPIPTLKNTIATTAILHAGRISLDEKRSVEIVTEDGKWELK

AnGar1 [2] = target: T1, AnGar1; experiment: NAD(P)H oxidation at […] nm, yeast crude extract; HPLC of L-galactonate in cultures; type: biochemical; details: 100 mM GalA, NADPH, 10 mM potassium phosphate pH 7.2
AnGar1 [3] = target: T1, AnGar1; experiment: NADPH oxidation at […] nm, yeast crude extract; type: biochemical; details: 100 mM GalA, 160 or 800 uM NADPH, 10 mM potassium phosphate pH 7.2

In the case of `NC(=O)c1ccc[n+]([C@@H]2O[C@H](COP(=O)(O)OP(=O)(O)OC[C@H]3O[C@@H](n4cnc5c(N)ncnc54)[C@H](OP(=O)(O)O)[C@@H]3O)[C@@H](O)[C@H]2O)c1` [NADP], the “relative activity (% of activity without NADP)” value (AnGar1 [1]) is reported as “when NADP was added to competitively inhibit NADH binding, only the mutants were able”.

`O=C(O)[C@H]1OC(O)[C@H](O)[C@@H](O)[C@H]1O` (stereo partly drawn) [D-galacturonic acid] was tested, and the “HPLC of L-galactonate in cultures of expressing yeast” value (TrGar1) was “Wildtype TrGar1 and AnGar1 produce comparable amount of GalOA”, the “HPLC of L-galactonate in cultures of expressing yeast” value (AnGaaA) was “The lower titers observed with AnGaaA in comparison to TrGar1” and the “NAD(P)H oxidation at 340 nm, yeast crude extract; HPLC of L-galactonate in cultu” value (AnGar1 [2]) was “we demonstrate, for the first time, the activity of AnGar1 as a GalA reductase”.

`NC(=O)C1=CN([C@@H]2O[C@H](COP(=O)(O)OP(=O)(O)OC[C@H]3O[C@@H](n4cnc5c(N)ncnc54)[C@H](OP(=O)(O)O)[C@@H]3O)[C@@H](O)[C@H]2O)C=CC1` [NADPH] was tested, and the “NADPH oxidation at 340 nm, yeast crude extract” value (AnGar1 [3]) was “lower compared to those with NADPH of the wildtype enzyme”.
